Test results: patent US20080009418A1, “Selective Inhibitors” (Alchemia LTD., priority 2004, published 2008)

Columns and labels:
[1] = target: T1, Human opioid (ORL1) (Homo sapiens, UniProt P41146); test: Radioligand binding, human opioid ORL1 membranes, FlashPlate, [125I]-Nociceptin; settings: compound at 10 μM, [125I]-Nociceptin; for A10: inhibition of radioligand binding: human ORL1 membranes, 10 µM
T1 construct: purchased Perkin Elmer Biosignal
In short: (§1)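 Cloned human receptor membranes were coated onto FlashPlate wells and incubated with radioligand and compound (added from a 0.5 mM DMSO daughter plate) for 1 hour at room temperature in the dark. Scintillation counting gave percent inhibition, with DMSO defining total and reference ligand defining non-specific binding.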

[2] = target: T2, Human melanin-concentrating hormone (MCH1) (Homo sapiens, UniProt Q99705); test: Radioligand binding, human melanin-concentrating hormone MCH1 membranes, FlashPlate, [125I]-S36057; settings: compound at 10 μM; for A6: inhibition of radioligand binding: [125I]-S36057, human MCH1 membranes
T2 construct: purchased Perkin Elmer Biosignal
In short: as §1

[3] = target: T3, Human μ-opioid (MOP) (Homo sapiens, UniProt P35372); test: Radioligand binding, human μ-opioid (MOP) membranes, FlashPlate, [3H]-Naloxone; settings: compound at 10 μM, [3H]-Naloxone; for A7: inhibition of radioligand binding: human MOP membranes
T3 construct: purchased Perkin Elmer Biosignal
In short: as §1

[4] = target: T4, Mouse urotensin (mUR2) (Mus musculus, UniProt Q8VIH9); test: Radioligand binding, mouse urotensin mUR2 membranes, FlashPlate, [125I]-Urotensin II; settings: compound at 10 μM, [125I]-Urotensin II; for A11: inhibition of radioligand binding: mouse mUR2 membranes
T4 construct: purchased Perkin Elmer Biosignal
T4 sequence (Q8VIH9 1-385): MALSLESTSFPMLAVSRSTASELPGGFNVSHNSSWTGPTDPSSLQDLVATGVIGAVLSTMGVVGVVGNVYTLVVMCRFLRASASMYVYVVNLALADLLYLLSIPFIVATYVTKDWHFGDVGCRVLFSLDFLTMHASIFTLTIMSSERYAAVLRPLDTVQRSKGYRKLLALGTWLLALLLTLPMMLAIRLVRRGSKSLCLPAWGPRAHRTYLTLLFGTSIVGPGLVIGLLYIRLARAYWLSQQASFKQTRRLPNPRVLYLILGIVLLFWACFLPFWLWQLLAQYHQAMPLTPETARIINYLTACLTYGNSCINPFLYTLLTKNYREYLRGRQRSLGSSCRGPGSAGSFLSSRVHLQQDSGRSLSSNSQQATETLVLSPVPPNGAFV
In short: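 Cloned mouse urotensin (mUR2) receptor membranes from Perkin Elmer Biosignal were immobilized in FlashPlate microplates using a proprietary coating. Each well got 19.5 μl buffer, then 0.5 μl of DMSO, reference ligand, or compound. Adding 5 μl of [125I]-Urotensin II, diluted to 5× final concentration in binding buffer, started binding. Plates were sealed with TopSeal-A and incubated 1 hour at room temperature in the dark. Wells were counted for 30 seconds each on a TopCount after a 60-second delay, and percentage inhibition was calculated.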

[5] = target: T5, Human neuropeptide Y (NPY-Y1) (Homo sapiens, UniProt P25929); test: Radioligand binding, human neuropeptide Y NPY-Y1 membranes, FlashPlate, [125I]-PYY; settings: compound at 10 μM, [125I]-PYY; for A9: inhibition of radioligand binding: human NPY-Y1 membranes
T5 construct: purchased Perkin Elmer Biosignal
T5 sequence (P25929 1-384): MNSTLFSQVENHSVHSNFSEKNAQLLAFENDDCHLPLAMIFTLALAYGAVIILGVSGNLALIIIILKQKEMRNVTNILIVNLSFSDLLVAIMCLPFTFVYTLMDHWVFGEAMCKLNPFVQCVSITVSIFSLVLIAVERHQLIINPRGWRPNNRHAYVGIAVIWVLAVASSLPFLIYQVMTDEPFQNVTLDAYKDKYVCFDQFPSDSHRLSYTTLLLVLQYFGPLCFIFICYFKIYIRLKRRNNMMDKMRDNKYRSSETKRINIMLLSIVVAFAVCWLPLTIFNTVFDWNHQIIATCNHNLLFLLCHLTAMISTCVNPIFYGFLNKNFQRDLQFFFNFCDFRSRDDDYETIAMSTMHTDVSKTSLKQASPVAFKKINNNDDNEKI
In short: as §1

[6] = target: T6, Human δ-opioid (DOP) (Homo sapiens, UniProt P41143); test: Radioligand binding, human δ-opioid (DOP) membranes, FlashPlate, [3H]-Bremazocine; settings: compound at 10 μM, [3H]-Bremazocine; for A1: inhibition of radioligand binding: human DOP membranes
T6 construct: purchased Perkin Elmer Biosignal
In short: as §1

[7] = target: T7, Human Melanocortin (MC3) (Homo sapiens, UniProt P41968); test: Radioligand binding, human melanocortin MC3 membranes, FlashPlate, [125I]-NDP-αMSH; settings: compound at 10 μM, [125I]-NDP-αMSH; for A3: inhibition of radioligand binding: human MC3 membranes
T7 construct: purchased Perkin Elmer Biosignal
In short: as §1

[8] = target: T8, Human neurokinin (NK1) (Homo sapiens, UniProt P25103); test: Radioligand binding, human neurokinin NK1 membranes, filtration, [125I]-Substance P; settings: compound at 10 μM, [125I]-Substance P; for A8: inhibition of radioligand binding: human NK1 membranes
T8 construct: purchased Perkin Elmer Biosignal
In short: (§2)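 Filtration binding on cloned human receptor membranes (1 Unit/well), [125I]-Substance P for NK1 and [3H]-Diprenorphine for KOP, 1 h at room temperature. Filters PEI-presoaked, washed with cold 50 mM Tris-HCl pH 7.4, counted by scintillation; percent inhibition calculated, reference ligand defining non-specific binding.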

[9] = target: T9, Human κ-Opioid (KOP) (Homo sapiens, UniProt P41145); test: Radioligand binding, human κ-opioid (KOP) membranes, filtration, [3H]-Diprenorphine; settings: compound at 10 μM, [3H]-Diprenorphine; for A2: inhibition of radioligand binding: human KOP membranes
T9 construct: purchased Perkin Elmer Biosignal
In short: as §2

[10] = target: T10, Human Melanocortin (MC4) (Homo sapiens, UniProt P32245); test: Radioligand binding, human melanocortin MC4 membranes, FlashPlate, [125I]-NDP-αMSH; settings: compound at 10 μM, [125I]-NDP-αMSH; for A4: inhibition of radioligand binding: human MC4 membranes, 10 µM
T10 construct: purchased Perkin Elmer Biosignal
In short: as §1

[11] = target: T11, Human melanocortin (MC5) (Homo sapiens, UniProt P33032); test: Radioligand binding, human melanocortin MC5 membranes, FlashPlate, [125I]-NDP-αMSH; settings: compound at 10 μM, [125I]-NDP-αMSH; for A5: inhibition of radioligand binding: human MC5 membranes
T11 construct: purchased Perkin Elmer Biosignal
In short: as §1

T11 sequence (P33032 whole entry): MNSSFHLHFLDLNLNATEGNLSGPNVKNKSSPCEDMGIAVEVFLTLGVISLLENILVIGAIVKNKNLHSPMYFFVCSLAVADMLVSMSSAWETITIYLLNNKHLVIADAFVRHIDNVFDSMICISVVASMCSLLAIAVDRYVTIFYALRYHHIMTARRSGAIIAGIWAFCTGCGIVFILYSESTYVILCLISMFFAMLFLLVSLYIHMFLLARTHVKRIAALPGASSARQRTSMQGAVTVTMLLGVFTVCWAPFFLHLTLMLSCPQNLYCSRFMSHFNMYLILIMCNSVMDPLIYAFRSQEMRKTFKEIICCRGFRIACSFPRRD
T9 sequence (P41145 whole entry): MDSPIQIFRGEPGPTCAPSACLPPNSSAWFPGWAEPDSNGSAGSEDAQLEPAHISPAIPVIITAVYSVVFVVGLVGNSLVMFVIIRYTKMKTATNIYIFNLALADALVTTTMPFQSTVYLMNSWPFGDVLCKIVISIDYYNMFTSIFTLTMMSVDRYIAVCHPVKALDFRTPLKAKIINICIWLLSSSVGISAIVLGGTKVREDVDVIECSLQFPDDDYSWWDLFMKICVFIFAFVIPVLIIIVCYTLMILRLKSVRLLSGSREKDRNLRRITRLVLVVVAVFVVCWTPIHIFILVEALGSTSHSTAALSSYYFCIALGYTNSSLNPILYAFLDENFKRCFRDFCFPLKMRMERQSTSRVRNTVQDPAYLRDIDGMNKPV
T7 sequence (P41968 whole entry): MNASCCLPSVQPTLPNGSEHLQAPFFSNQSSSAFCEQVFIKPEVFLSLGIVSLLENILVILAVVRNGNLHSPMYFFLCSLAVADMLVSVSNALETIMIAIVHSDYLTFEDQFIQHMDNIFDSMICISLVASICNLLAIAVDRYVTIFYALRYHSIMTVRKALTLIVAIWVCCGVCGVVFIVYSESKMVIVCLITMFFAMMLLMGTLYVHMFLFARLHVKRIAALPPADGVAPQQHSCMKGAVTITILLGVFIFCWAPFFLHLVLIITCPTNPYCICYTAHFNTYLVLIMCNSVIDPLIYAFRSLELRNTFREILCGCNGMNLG
T3 sequence (P35372 whole entry): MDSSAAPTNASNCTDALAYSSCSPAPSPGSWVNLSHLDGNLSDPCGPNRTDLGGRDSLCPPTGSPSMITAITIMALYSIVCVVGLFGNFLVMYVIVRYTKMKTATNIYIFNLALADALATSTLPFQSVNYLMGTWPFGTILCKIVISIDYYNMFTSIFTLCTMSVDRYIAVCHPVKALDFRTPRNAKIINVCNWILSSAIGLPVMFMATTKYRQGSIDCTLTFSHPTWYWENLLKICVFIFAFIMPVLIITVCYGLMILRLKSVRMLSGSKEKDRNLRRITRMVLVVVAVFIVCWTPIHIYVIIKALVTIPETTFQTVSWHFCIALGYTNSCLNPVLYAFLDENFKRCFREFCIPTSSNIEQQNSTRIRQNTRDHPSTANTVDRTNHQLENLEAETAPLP
T1 sequence (P41146 whole entry): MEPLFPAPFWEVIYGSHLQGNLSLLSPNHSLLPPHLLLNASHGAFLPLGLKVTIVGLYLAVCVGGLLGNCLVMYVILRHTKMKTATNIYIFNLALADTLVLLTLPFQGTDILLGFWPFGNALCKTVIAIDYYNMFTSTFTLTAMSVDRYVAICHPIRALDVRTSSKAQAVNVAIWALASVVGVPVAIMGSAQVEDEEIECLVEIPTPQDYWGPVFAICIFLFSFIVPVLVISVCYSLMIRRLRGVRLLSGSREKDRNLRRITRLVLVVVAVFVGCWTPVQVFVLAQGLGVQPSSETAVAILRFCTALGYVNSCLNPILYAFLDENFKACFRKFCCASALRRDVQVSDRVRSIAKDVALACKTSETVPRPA
T6 sequence (P41143 whole entry): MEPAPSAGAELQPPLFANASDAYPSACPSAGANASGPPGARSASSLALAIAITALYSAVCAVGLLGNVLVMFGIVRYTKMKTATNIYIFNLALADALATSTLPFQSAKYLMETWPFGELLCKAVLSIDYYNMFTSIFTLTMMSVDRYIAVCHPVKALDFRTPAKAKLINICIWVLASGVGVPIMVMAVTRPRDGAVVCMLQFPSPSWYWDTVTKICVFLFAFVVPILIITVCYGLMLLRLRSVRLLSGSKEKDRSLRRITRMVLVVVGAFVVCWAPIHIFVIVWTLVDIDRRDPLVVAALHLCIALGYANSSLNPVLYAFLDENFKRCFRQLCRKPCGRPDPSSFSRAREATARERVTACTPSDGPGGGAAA
T2 sequence (Q99705 whole entry): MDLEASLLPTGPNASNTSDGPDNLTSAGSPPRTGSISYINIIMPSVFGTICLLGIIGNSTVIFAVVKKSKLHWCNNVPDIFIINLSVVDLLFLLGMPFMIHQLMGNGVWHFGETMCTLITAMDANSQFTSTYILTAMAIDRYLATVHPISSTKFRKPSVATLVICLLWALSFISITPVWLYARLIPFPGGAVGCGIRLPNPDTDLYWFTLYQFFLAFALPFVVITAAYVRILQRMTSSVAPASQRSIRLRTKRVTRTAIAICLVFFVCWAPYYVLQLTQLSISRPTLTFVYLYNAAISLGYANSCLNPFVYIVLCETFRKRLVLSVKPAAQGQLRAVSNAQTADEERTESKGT
T8 sequence (P25103 whole entry): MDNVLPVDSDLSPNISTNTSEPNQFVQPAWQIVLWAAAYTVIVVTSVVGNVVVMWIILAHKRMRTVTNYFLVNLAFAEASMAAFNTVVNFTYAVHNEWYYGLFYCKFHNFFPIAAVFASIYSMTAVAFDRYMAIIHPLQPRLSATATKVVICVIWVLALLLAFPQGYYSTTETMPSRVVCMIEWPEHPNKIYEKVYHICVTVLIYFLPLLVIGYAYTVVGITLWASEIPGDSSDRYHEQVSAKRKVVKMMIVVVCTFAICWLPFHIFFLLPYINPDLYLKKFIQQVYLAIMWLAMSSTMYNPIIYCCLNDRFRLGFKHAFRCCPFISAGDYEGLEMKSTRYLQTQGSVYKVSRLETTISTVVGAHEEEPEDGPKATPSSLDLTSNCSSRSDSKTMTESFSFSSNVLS
T10 sequence (P32245 whole entry): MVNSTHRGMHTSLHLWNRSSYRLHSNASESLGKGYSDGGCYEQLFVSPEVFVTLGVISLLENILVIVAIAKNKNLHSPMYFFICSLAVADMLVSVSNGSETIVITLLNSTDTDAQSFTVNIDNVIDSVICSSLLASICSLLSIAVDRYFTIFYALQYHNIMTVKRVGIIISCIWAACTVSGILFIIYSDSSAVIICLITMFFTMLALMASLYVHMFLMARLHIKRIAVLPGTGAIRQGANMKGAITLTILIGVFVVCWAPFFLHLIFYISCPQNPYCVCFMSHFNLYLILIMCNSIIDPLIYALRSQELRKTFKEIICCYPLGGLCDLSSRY

| Compound | A10: inhibition of radioligand binding [1] | A11: inhibition of radioligand binding [4] | A9: inhibition of radioligand binding [5] | A1: inhibition of radioligand binding [6] | A8: inhibition of radioligand binding [8] | A2: inhibition of radioligand binding [9] | A4: inhibition of radioligand binding [10] | A5: inhibition of radioligand binding [11] | A10 radioligand binding, percentage inhibition [1] | A6 radioligand binding, percentage inhibition ([2]; [125I]-S36057) | A7 radioligand binding, percentage inhibition [3] | A11 radioligand binding, percentage inhibition [4] | A9 radioligand binding, percentage inhibition [5] | A1 radioligand binding, percentage inhibition [6] | A3 radioligand binding, percentage inhibition [7] | A8 radioligand binding, percentage inhibition [8] | A2 radioligand binding, percentage inhibition [9] | A4 radioligand binding, percentage inhibition [10] | A5 radioligand binding, percentage inhibition [11] | also measured |
| --- | --- | --- | --- | --- | --- | --- | --- | --- | --- | --- | --- | --- | --- | --- | --- | --- | --- | --- | --- | --- |
| NCCCC(=O)NC1C(OCc2ccc3ccccc3c2)OC(COCc2ccccc2)C(O)C1OCc1ccccc1 (single isomer, unassigned) [compound 468] | + (“+” indicates greater than 50% inhibition at 10 μM) | − (“−” indicates less than 50% inhibition at 10 μM) | − (“−” indicates less than 50% inhibition at 10 μM) | − (“−” indicates less than 50% inhibition at 10 μM) | + (“+” indicates greater than 50% inhibition at 10 μM) | − (“−” indicates less than 50% inhibition at 10 μM) | − (“−” indicates less than 50% inhibition at 10 μM) | − (“−” indicates less than 50% inhibition at 10 μM) | – | – | – | – | – | – | – | – | – | – | – | A6: inhibition of radioligand binding [2]: − (“−” indicates less than 50% inhibition at 10 μM); A7: inhibition of radioligand binding ([3]; 10 µM): + (“+” indicates greater than 50% inhibition at 10 μM); A3: inhibition of radioligand binding [7]: − (“−” indicates less than 50% inhibition at 10 μM) |
| CSC1OC(COCc2ccc3ccccc3c2)C(O)C(OCc2ccc3ccccc3c2)C1NC(=O)CCN (stereo not shown) [compound 318] | – | – | – | – | – | – | – | – | – | – | – | – | – | – | – | – | – | – | – | A10: inhibition of radioligand binding, human opioid (ORL1) [1]: − (“−” indicates less than 50% inhibition at 10 μM); A6: inhibition of radioligand binding, human melanin-concentrating hormone (MCH1) ([2]; [125I]-S36057): − (“−” indicates less than 50% inhibition at 10 μM); A7: inhibition of radioligand binding, human μ-opioid (MOP) [3]: − (“−” indicates less than 50% inhibition at 10 μM); A11: inhibition of radioligand binding, mouse urotensin (mUR2) [4]: − (“−” indicates less than 50% inhibition at 10 μM); A9: inhibition of radioligand binding, human neuropeptide Y (NPY-Y1) [5]: − (“−” indicates less than 50% inhibition at 10 μM); A1: inhibition of radioligand binding, human δ-opioid (DOP) [6]: − (“−” indicates less than 50% inhibition at 10 μM); A3: inhibition of radioligand binding, human melanocortin (MC3) [7]: − (“−” indicates less than 50% inhibition at 10 μM); A8: inhibition of radioligand binding, human neurokinin (NK1) [8]: + (“+” indicates greater than 50% inhibition at 10 μM); A2: inhibition of radioligand binding, human κ-opioid (KOP) [9]: − (“−” indicates less than 50% inhibition at 10 μM); A4: inhibition of radioligand binding, human melanocortin (MC4) [10]: − (“−” indicates less than 50% inhibition at 10 μM); A5: inhibition of radioligand binding, human melanocortin (MC5) [11]: + (“+” indicates greater than 50% inhibition at 10 μM) |
| CO[C@H]1[C@H](O)[C@@H](COCc2cccc(O)c2)OC(OCc2ccccc2)[C@@H]1NC(=O)CCCN (stereo partly shown) [compound 153] | – | – | – | – | – | – | – | – | − (“−” indicates less than 50% inhibition at 10 μM) | − (“−” indicates less than 50% inhibition at 10 μM) | − (“−” indicates less than 50% inhibition at 10 μM) | − (“−” indicates less than 50% inhibition at 10 μM) | − (“−” indicates less than 50% inhibition at 10 μM) | − (“−” indicates less than 50% inhibition at 10 μM) | − (“−” indicates less than 50% inhibition at 10 μM) | + (“+” indicates greater than 50% inhibition at 10 μM) | − (“−” indicates less than 50% inhibition at 10 μM) | − (“−” indicates less than 50% inhibition at 10 μM) | − (“−” indicates less than 50% inhibition at 10 μM) | – |
| COC[C@H]1OC(OCc2ccc3ccccc3c2)[C@H](NC(=O)CNC(=N)N)[C@@H](OCc2cccc(O)c2)[C@@H]1O (stereo partly shown) [compound 133] | – | – | – | – | – | – | – | – | − (“−” indicates less than 50% inhibition at 10 μM) | − (“−” indicates less than 50% inhibition at 10 μM) | + (“+” indicates greater than 50% inhibition at 10 μM) | − (“−” indicates less than 50% inhibition at 10 μM) | − (“−” indicates less than 50% inhibition at 10 μM) | − (“−” indicates less than 50% inhibition at 10 μM) | − (“−” indicates less than 50% inhibition at 10 μM) | − (“−” indicates less than 50% inhibition at 10 μM) | − (“−” indicates less than 50% inhibition at 10 μM) | − (“−” indicates less than 50% inhibition at 10 μM) | − (“−” indicates less than 50% inhibition at 10 μM) | – |
| NCCCC(=O)NC1C(OCc2ccc3ccccc3c2)OC(COCc2ccc3ccccc3c2)C(O)C1OCc1ccccc1 (stereo not shown) [compound 396] | − (“−” indicates less than 50% inhibition at 10 μM) | − (“−” indicates less than 50% inhibition at 10 μM) | − (“−” indicates less than 50% inhibition at 10 μM) | − (“−” indicates less than 50% inhibition at 10 μM) | + (“+” indicates greater than 50% inhibition at 10 μM) | − (“−” indicates less than 50% inhibition at 10 μM) | + (“+” indicates greater than 50% inhibition at 10 μM) | + (“+” indicates greater than 50% inhibition at 10 μM) | – | – | – | – | – | – | – | – | – | – | – | A6: inhibition of radioligand binding ([2]; 10 µM): − (“−” indicates less than 50% inhibition at 10 μM); A7: inhibition of radioligand binding [3]: − (“−” indicates less than 50% inhibition at 10 μM); A3: inhibition of radioligand binding ([7]; 10 µM): + (“+” indicates greater than 50% inhibition at 10 μM) |
